Type in all cases: biochemical
For one data set, the target named is T1, MAO-A (Homo sapiens, UniProt P21397).
T1 construct: purchased Sigma-Aldrich
T1 sequence (P21397 1-527): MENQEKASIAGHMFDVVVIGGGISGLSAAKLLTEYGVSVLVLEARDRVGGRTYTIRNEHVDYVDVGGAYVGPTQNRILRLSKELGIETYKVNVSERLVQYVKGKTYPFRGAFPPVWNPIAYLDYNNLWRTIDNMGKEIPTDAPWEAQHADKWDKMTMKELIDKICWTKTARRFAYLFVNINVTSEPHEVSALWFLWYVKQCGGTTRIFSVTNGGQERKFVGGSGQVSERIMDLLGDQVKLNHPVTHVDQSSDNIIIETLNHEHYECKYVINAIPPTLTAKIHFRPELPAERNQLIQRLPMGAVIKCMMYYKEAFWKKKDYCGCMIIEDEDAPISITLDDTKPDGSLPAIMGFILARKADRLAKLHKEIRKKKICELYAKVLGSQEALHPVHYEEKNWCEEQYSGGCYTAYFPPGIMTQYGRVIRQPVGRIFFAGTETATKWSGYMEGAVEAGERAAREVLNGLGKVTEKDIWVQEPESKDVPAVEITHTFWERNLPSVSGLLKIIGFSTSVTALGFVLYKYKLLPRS
As to the kind of experiment: continuous spectrophotometric MAO-A inhibition assay. Particulars: for MAO-A inhibition %: 100 µM, 1h.

A further data set addresses T2, recombinant human HSD1 (Homo sapiens, UniProt P14061).
T2 construct: made in house; host or cells: Sf9 insect cells
T2 sequence (P14061 1-328): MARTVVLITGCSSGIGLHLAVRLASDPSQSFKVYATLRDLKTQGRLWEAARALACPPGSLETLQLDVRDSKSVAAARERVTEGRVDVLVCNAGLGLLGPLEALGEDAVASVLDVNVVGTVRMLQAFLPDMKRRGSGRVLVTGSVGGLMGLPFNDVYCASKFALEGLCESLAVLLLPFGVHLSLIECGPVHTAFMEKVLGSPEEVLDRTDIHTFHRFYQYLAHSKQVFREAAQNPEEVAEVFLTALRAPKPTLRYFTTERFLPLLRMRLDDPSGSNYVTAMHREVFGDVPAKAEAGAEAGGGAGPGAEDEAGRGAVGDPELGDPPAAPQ
Description: HSD1 inhibition by HPLC with tritium labeled estrone/estradiol. Particulars: 1 μM.

The next data set addresses T3, human CYP1A2 (Homo sapiens, UniProt P05177).
T3 construct: purchased Corning Inc
T3 sequence (P05177 1-516): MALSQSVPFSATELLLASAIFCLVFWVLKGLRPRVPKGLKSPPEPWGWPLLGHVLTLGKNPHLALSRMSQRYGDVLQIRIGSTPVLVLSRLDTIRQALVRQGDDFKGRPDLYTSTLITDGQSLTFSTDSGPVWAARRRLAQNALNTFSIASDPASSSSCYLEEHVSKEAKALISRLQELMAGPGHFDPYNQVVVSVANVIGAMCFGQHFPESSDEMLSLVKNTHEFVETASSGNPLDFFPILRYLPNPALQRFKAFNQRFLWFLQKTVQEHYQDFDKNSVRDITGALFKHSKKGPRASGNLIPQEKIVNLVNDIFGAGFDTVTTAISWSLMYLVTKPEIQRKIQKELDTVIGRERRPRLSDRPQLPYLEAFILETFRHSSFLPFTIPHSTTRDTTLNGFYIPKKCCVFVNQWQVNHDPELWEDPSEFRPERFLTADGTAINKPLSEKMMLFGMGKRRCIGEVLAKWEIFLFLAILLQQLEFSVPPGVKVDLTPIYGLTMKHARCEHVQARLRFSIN
As to the kind of experiment: CYP1A2 inhibition, 7-ethoxyresorufin fluorescence assay. As for the experimental part:
Inhibition of CYP1A2 activity was determined with commercial heterologously expressed human CYP1A2 enzyme (Corning Inc., Corning, NY, USA) as described earlier (Korhonen et al., [2005]). The metabolic activity was not in the scope of this particular study. The assay was adapted to the 96-well plate format. In each well, a 150 μL incubation volume contained 100 mM Tris-HCl buffer (pH 7.4), 4.2 mM MgCl2,1 μM 7-ethoxyresorufin, 0.5 pmol of cDNA expressed CYP1A2, […] inhibitor, and a NADPH-generating system. All inhibitors were dissolved in ethanol, and the final concentration of ethanol was 2% in all incubations. The reaction was initiated by adding the NADPH-regenerating system after a 10 min preincubation at 37°C, and after a 20 min incubation, the reaction was terminated by the addition of 110 μL of 80% acetonitrile/20% 0.5 M Tris base. The formed fluorescence was measured with a Victor2 plate counter (Perkin-Elmer Life Sciences Wallac, Turku, Finland) at 570 nm excitation and 616 nm emission.

We go through 25 molecules from PMC5840146, “Structure-Activity Relationship Analysis of 3-Phenylcoumarin-Based Monoamine Oxidase B Inhibitors” (Frontiers in Chemistry, 2018).

In general, inhibition refers to how much of the control response was suppressed. The IC50 is the concentration at which inhibition is half-maximal. Read a high IC50 as weaker potency in that assay. `Cc1ccc2oc(=O)c(-c3ccc(F)cc3)cc2c1` [derivative 23, 3-(4-fluorophenyl)-6-methyl-2H-chromen-2-one] returned an inhibition at 100 µM against MAO-A of 0%. Also, at recombinant human HSD1, the HSD1 inhibition % was 11% and the inhibition at 1 µM lay within 12 to 33%. On human CYP1A2, this molecule gave a concentration for half-maximal inhibition (IC50) of 3 µM.
Turning to `COc1ccc2oc(=O)c(-c3cc(F)c(F)cc3F)cc2c1` [derivative 15, 6-methoxy-3-(2,4,5-trifluorophenyl)-2H-chromen-2-one], the inhibition at 100 µM on MAO-A worked out at 0%. On recombinant human HSD1, the inhibition at 1 µM amounted to 12%. This molecule also registered a half-maximal inhibitory concentration (IC50) against human CYP1A2 of 3 µM.
The like results for `Cc1ccc2oc(=O)c(-c3ccc(C(F)(F)F)cc3)cc2c1` [derivative 5, 6-methyl-3-(4-(trifluoromethyl)phenyl)-2H-chromen-2-one] were, in that order, 0%, 0% and 171 µM.
On to `O=c1oc2cc(O)ccc2cc1-c1ccccc1` [derivative 41], for which the MAO-A inhibition % on MAO-A is 9.52%. For the same molecule, at human CYP1A2, half-maximal inhibition (IC50) was put at 8 µM.
For `COc1ccc(-c2cc3ccccc3oc2=O)cc1` [derivative 36], on MAO-A, the MAO-A inhibition % is listed as 0.87%. In addition, the HSD1 inhibition % at recombinant human HSD1 was 3.80%. The molecule further had a 50% inhibitory concentration (IC50) at human CYP1A2 of 26 µM.
On the same counts, the results for `COc1ccc(-c2cc3cccc(O)c3oc2=O)cc1` [derivative 33] are 3.66%, 76.70% and 86 µM.
On the same counts, the results for `O=c1oc2ccccc2cc1-c1ccc(O)cc1` [derivative 29] are 0.00%, 5.40% and 26 µM.
The like results for `Cc1ccc(-c2cc3ccc(O)cc3oc2=O)cc1` [derivative 27] were, in that order, 43.83%, 12.50% and 180 µM.
As to `O=c1oc2cc(O)ccc2cc1-c1ccc(O)cc1` [derivative 30], the MAO-A inhibition % on MAO-A amounted to 0.00%. The HSD1 inhibition % on recombinant human HSD1 was 48.20%. This molecule registered an IC50 against human CYP1A2 of 22 µM.
The like results for `O=c1oc2ccc(O)cc2cc1-c1ccc(O)cc1` [derivative 48] were, in that order, 0.00%, 83.90% and 33 µM.
`COc1ccc2cc(-c3cc(F)c(F)cc3F)c(=O)oc2c1` [derivative 16, 7-methoxy-3-(2,4,5-trifluorophenyl)-2H-chromen-2-one]: the inhibition at 1 µM on recombinant human HSD1 is 33%. Also, inhibition at human CYP1A2 was half-maximal at 4.5 µM (IC50).
`COc1cccc(-c2cc3ccccc3oc2=O)c1` [derivative 11, 3-(3-methoxyphenyl)-2H-chromen-2-one] gave an inhibition at 100 µM on MAO-A of 0%. Moreover, the inhibition at 1 µM at recombinant human HSD1 was determined as 4%. This molecule also showed an IC50 at human CYP1A2 of 1.6 µM.
On to `COc1cccc(-c2cc3ccc(OC)cc3oc2=O)c1` [derivative 25], for which the MAO-A inhibition % at MAO-A is 0.00%. Also, the HSD1 inhibition % at recombinant human HSD1 is 3.50%. On human CYP1A2, this molecule returned an IC50 of 35 µM.
Regarding `O=c1oc2ccc(O)cc2cc1-c1cccc(O)c1` [derivative 38], the MAO-A inhibition % at MAO-A came to 13.11%. Also, the HSD1 inhibition % at recombinant human HSD1 is reported as 49.10%. This molecule also showed an IC50 against human CYP1A2 of 24 µM.
`COc1ccc2oc(=O)c(-c3ccc(F)cc3)cc2c1` [derivative 21, 3-(4-fluorophenyl)-6-methoxy-2H-chromen-2-one] came in with an inhibition at 100 µM against MAO-A of 0%. Also, the inhibition at 1 µM on recombinant human HSD1 came to 0%. The same molecule displayed an IC50 against human CYP1A2 of 3 µM.
Turning to `COc1cccc(-c2cc3cc(OC)ccc3oc2=O)c1` [derivative 8, 6-methoxy-3-(3-methoxyphenyl)-2H-chromen-2-one], the inhibition at 100 µM against MAO-A is 0%. The inhibition at 1 µM on recombinant human HSD1 was found to be 0%. This molecule also gave an IC50 against human CYP1A2 of 2.3 µM.
At MAO-A, `COc1ccc2oc(=O)c(-c3ccc(N(C)C)cc3)cc2c1` [derivative 18, 3-(4-(dimethylamino)phenyl)-6-methoxy-2H-chromen-2-one] registered an inhibition at 100 µM of 0%. For the same molecule, at recombinant human HSD1, the inhibition at 1 µM worked out at 1%. The molecule also came in with an IC50 at human CYP1A2 of 17 µM.
On the same counts, the results for `COc1ccc2oc(=O)c(-c3ccc(O)c(F)c3)cc2c1` [derivative 22, 3-(3-fluoro-4-hydroxyphenyl)-6-methoxy-2H-chromen-2-one] are 0%, 54% and 1.5 µM.
On the same counts, the results for `O=c1oc2ccc(O)cc2cc1-c1ccc(F)cc1` [derivative 24, 3-(4-fluorophenyl)-6-hydroxy-2H-chromen-2-one] are 14.2%, 20% and 3 µM.
For `O=c1oc2cc(O)ccc2cc1-c1ccc(F)cc1` [derivative 39], the MAO-A inhibition % on MAO-A is on record as 12.56%. For the same molecule, at recombinant human HSD1, the HSD1 inhibition % was 0.00%. Further, 240 µM corresponded to half-maximal inhibition against human CYP1A2 (IC50).
As to `CC(=O)Oc1ccc2cc(-c3ccc(F)cc3)c(=O)oc2c1` [derivative 28], at MAO-A, the MAO-A inhibition % is reported as 0.00%. At recombinant human HSD1, the HSD1 inhibition % was found to be 0.30%. Also, on human CYP1A2, the half-maximal inhibitory concentration (IC50) is 114 µM.
On the same counts, the results for `O=c1oc2ccccc2cc1-c1cccc(O)c1` [derivative 31] are 4.14%, 56.00% and 7 µM.
As to `COc1ccc2cc(-c3ccc(O)c(F)c3)c(=O)oc2c1` [derivative 20, 3-(3-fluoro-4-hydroxyphenyl)-7-methoxy-2H-chromen-2-one], at 100 µM the inhibition against MAO-A was 0%. In addition, the inhibition at 1 µM on recombinant human HSD1 stood at 46%. For the same molecule, inhibition at human CYP1A2 was half-maximal at 30 µM (IC50).
`COc1ccc(-c2cc3ccc(O)cc3oc2=O)cc1` [derivative 12, 7-hydroxy-3-(4-methoxyphenyl)-2H-chromen-2-one] registered an inhibition at 100 µM on MAO-A of 24.6%. The inhibition at 1 µM on recombinant human HSD1 came to 3%. The same molecule yielded a half-inhibitory concentration (IC50) at human CYP1A2 of 170 µM.
Turning to `COc1ccc2oc(=O)c(-c3ccc(Oc4ccc(F)cc4)cc3)cc2c1` [derivative 46], the MAO-A inhibition % on MAO-A came out at 8.11%. The HSD1 inhibition % on recombinant human HSD1 came out at 0.00%. Moreover, at human CYP1A2, the IC50 is 240 µM.
